The record followed here is patent publication US20100173777A1, “Piperazine Compounds Having Herbicidal Action” (BASF SE, priority 2007, published 2010).

Type in all cases: in vivo
Assay [1] concerns APESV (Apera spica-venti). The assay can be described thus: greenhouse pre-emergence herbicidal test, APESV. Particulars: scale from 0 to 100. The source says: (§1) The culture containers used were plastic flowerpots containing loamy sand with approximately 3.0% of humus as the substrate. The seeds of the test plants were sown separately for each species.
(§2) For the pre-emergence treatment, the active ingredients, which had been suspended or emulsified in water, were applied directly after sowing by means of finely distributing nozzles. The containers were irrigated gently to promote germination and growth and subsequently covered with transparent plastic hoods until the plants had rooted. This cover caused uniform germination of the test plants, unless this has been impaired by the active ingredients.
(§3) Depending on the species, the plants were kept at 10-25° C. or 20-35° C. The test period extended over 2 to 4 weeks. During this time, the plants were tended, and their response to the individual treatments was evaluated.
(§4) Evaluation was carried out using a scale from 0 to 100. 100 means no emergence of the plants, or complete destruction of at least the aerial moieties, and 0 means no damage, or normal course of growth. A good herbicidal activity is given at values of at least 70 and a very good herbicidal activity is given at values of at least 85.

The test system of assay [2] is ECHCG (Echinochloa crus-galli). The assay can be described thus: greenhouse post-emergence herbicidal test, ECHCG. To be noted: scale from 0 to 100.
Source text: as §1
(§5) For the post-emergence treatment, the test plants were first grown to a height of 3 to 15 cm, depending on the plant habit, and only then treated with the active ingredients which had been suspended or emulsified in water. For this purpose, the test plants were either sown directly and grown in the same containers, or they were first grown separately as seedlings and transplanted into the test containers a few days prior to treatment.
as §3, §4

The subject of assay [3] is ALOMY (Alopecurus myosuroides). Description: greenhouse pre-emergence herbicidal test, ALOMY. Particulars: scale from 0 to 100.
Source text: as §1, §2, §3, §4

Assay [4] deals with ECHCG (Echinochloa crus-galli). The assay can be described thus: greenhouse pre-emergence herbicidal test, ECHCG. To be noted: scale from 0 to 100.
Source text: as §1, §2, §3, §4

Assay [5] has as its system APESV (Apera spica-venti). The assay can be described thus: greenhouse post-emergence herbicidal test, APESV. To be noted: 0.5 kg/ha, scale from 0 to 100.
Source text: as §1, §5, §3, §4

Assay [6] relates to ALOMY (Alopecurus myosuroides). The assay can be described thus: greenhouse post-emergence herbicidal test, ALOMY. To be noted: 0.5 kg/ha, scale from 0 to 100.
Source text: as §1, §5, §3, §4

Assay [7] has as its system CHEAL (Chenopodium album). The assay can be described thus: greenhouse post-emergence herbicidal test, CHEAL. To be noted: 1.0 kg/ha, scale from 0 to 100.
Source text: as §1, §5, §3, §4

The next assay has as its system SETFA (Setaria faberi). The assay can be described thus: greenhouse pre-emergence herbicidal test, SETFA. Particulars: 1.0 kg/ha, scale from 0 to 100.
Source text: as §1, §2, §3, §4

A further assay relates to SETVI (Setaria viridis). The assay can be described thus: greenhouse post-emergence herbicidal test, SETVI. To be noted: 1.0 kg/ha, scale from 0 to 100.
Source text: as §1, §5, §3, §4

Assay [8] concerns AMARE (Amaranthus retoflexus). The assay can be described thus: greenhouse pre-emergence herbicidal test, AMARE. Particulars: 1.0 kg/ha, scale from 0 to 100.
Source text: as §1, §2, §3, §4

The test system of assay [9] is AMARE (Amaranthus retoflexus). Description: greenhouse post-emergence herbicidal test, AMARE. Particulars: 1.0 kg/ha, scale from 0 to 100.
Source text: as §1, §5, §3, §4

On to `CN1C(=O)C(C)(Cc2ccccc2)N(C)C(=O)C1Cc1ccccc1C#N` (single isomer, unassigned) [Example 1 (minor isomer 2), 2-[5-Benzyl-1,4,5-trimethyl-3,6-dioxopiperazine-2-ylmethyl]benzonitrile], for which the “herbicidal activity against APESV” value in assay [1] (0.5 kg/ha) and in [5] was “very good herbicidal activity (a very good herbicidal activity is given at values of at least 85)” throughout. The “herbicidal activity against ECHCG” value in assay [2] (0.5 kg/ha) and in assay [4] (0.5 kg/ha) was “very good herbicidal activity (a very good herbicidal activity is given at values of at least 85)” in each case. Moreover, the “herbicidal activity against ALOMY” value in assay [3] (0.5 kg/ha) and in assay [6] was “very good herbicidal activity (a very good herbicidal activity is given at values of at least 85)” each time.
Turning to `CN1C(=O)C(C)(Cc2ccccc2)N(C)C(=O)C1Cc1ccccc1C#N` (single isomer, unassigned) [Example 1 (main isomer 1), 2-[5-Benzyl-1,4,5-trimethyl-3,6-dioxopiperazine-2-ylmethyl]benzonitrile], in assay [7], the “herbicidal activity against CHEAL” value was “very good herbicidal activity (a very good herbicidal activity is given at values of at least 85)”. Moreover, the “herbicidal activity against APESV” value in assay [1] (1.0 kg/ha) is “very good herbicidal activity (a very good herbicidal activity is given at values of at least 85)”. In addition, in the assay on SETFA (Setaria faberi), the “herbicidal activity against SETFA” value is given as “very good herbicidal activity (a very good herbicidal activity is given at values of at least 85)”. The “herbicidal activity against ECHCG” value in assay [2] (1.0 kg/ha) and in [4] (1.0 kg/ha) was “very good herbicidal activity (a very good herbicidal activity is given at values of at least 85)” each time. For the same compound, the “herbicidal activity against ALOMY” value in assay [3] (1.0 kg/ha) is listed as “very good herbicidal activity (a very good herbicidal activity is given at values of at least 85)”. The “herbicidal activity against SETVI” value in the assay with SETVI (Setaria viridis) was “very good herbicidal activity (a very good herbicidal activity is given at values of at least 85)”. Also, the “herbicidal activity against AMARE” value in assay [8] and in assay [9] was “very good herbicidal activity (a very good herbicidal activity is given at values of at least 85)” throughout.
